The supplement of paper PMC10307832

Experiments:
Test in all cases: relative viability (nuclei count vs DMSO), 5 days (fraction); higher = more cells survive
CAL-12T = tested on: CAL-12T
Summary of the method: (§1)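 After 5 days of treatment, lung cancer cells in 1536-well plates were fixed and stained in a single step (final 0.05% Triton X-100, 1% formaldehyde, 1 ug/ml Hoechst) and their nuclei counted on 4× images. Treatment had been applied by pin tool the day after seeding as one drug alone or as a fixed anchor-drug dose with five library-drug doses (not always all listed) in √10 steps. Relative viability is the nuclei count of treated wells divided by that of vehicle wells, and values are medians of duplicate plates.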

COR-L 105 = tested on: COR-L 105
Summary of the method: as §1

ChaGo-K-1 = tested on: ChaGo-K-1
Summary of the method: as §1

EMC-BAC-2 = tested on: EMC-BAC-2
Summary of the method: as §1

EPLC-272H = tested on: EPLC-272H
Summary of the method: as §1

HCC-15 = tested on: HCC-15
Summary of the method: as §1

HCC-78 = tested on: HCC-78
Summary of the method: as §1

HOP-62 = tested on: HOP-62
Summary of the method: as §1

LXF-289 = tested on: LXF-289
Summary of the method: as §1

NCI-H1666 = tested on: NCI-H1666
Summary of the method: as §1

NCI-H1755 = tested on: NCI-H1755
Summary of the method: as §1

NCI-H1915 = tested on: NCI-H1915
Summary of the method: as §1

NCI-H1975 = tested on: NCI-H1975
Summary of the method: as §1

NCI-H1993 = tested on: NCI-H1993
Summary of the method: as §1

NCI-H2023 = tested on: NCI-H2023
Summary of the method: as §1

NCI-H2085 = tested on: NCI-H2085
Summary of the method: as §1

NCI-H2126 = tested on: NCI-H2126
Summary of the method: as §1

NCI-H3122 = tested on: NCI-H3122
Summary of the method: as §1

NCI-H322M = tested on: NCI-H322M
Summary of the method: as §1

NCI-H358 = tested on: NCI-H358
Summary of the method: as §1

NCI-H441 = tested on: NCI-H441
Summary of the method: as §1

NCI-H522 = tested on: NCI-H522
Summary of the method: as §1

UMC-11 = tested on: UMC-11
Summary of the method: as §1

COc1cc(N2CCC(C(N)=O)CC2)ccc1Nc1nc(N)c(Cl)c(Nc2ccccc2S(=O)(=O)C(C)C)n1 [HG-5-88-01] + CC(=O)Nc1cccc(-n2c(=O)n(C3CC3)c(=O)c3c(Nc4ccc(I)cc4F)n(C)c(=O)c(C)c32)c1 [Trametinib] (partner 0.02 µM)
relative viability (CAL-12T; first compound 0.04 µM): 0.377
relative viability (CAL-12T; first compound 0.1265 µM): 0.378
relative viability (CAL-12T; first compound 0.4 µM): 0.3
relative viability (CAL-12T; first compound 1.265 µM): 0.227
relative viability (CAL-12T; first compound 4 µM): 0.201
relative viability (COR-L 105; first compound 0.04 µM): 0.471
relative viability (COR-L 105; first compound 0.1265 µM): 0.423
relative viability (COR-L 105; first compound 0.4 µM): 0.402
relative viability (COR-L 105; first compound 1.265 µM): 0.319
relative viability (COR-L 105; first compound 4 µM): 0.421
relative viability (ChaGo-K-1; first compound 0.04 µM): 0.868
relative viability (ChaGo-K-1; first compound 0.1265 µM): 0.908
relative viability (ChaGo-K-1; first compound 0.4 µM): 0.843
relative viability (ChaGo-K-1; first compound 1.265 µM): 0.925
relative viability (ChaGo-K-1; first compound 4 µM): 0.875
relative viability (EMC-BAC-2; first compound 0.04 µM): 0.927
relative viability (EMC-BAC-2; first compound 0.1265 µM): 0.939
relative viability (EMC-BAC-2; first compound 0.4 µM): 0.8
relative viability (EMC-BAC-2; first compound 1.265 µM): 0.564
relative viability (EMC-BAC-2; first compound 4 µM): 0.632
relative viability (EPLC-272H; first compound 0.04 µM): 0.316
relative viability (EPLC-272H; first compound 0.1265 µM): 0.308
relative viability (EPLC-272H; first compound 0.4 µM): 0.279
relative viability (EPLC-272H; first compound 1.265 µM): 0.205
relative viability (EPLC-272H; first compound 4 µM): 0.0984
relative viability (HCC-15; first compound 0.04 µM): 0.372
relative viability (HCC-15; first compound 0.1265 µM): 0.359
relative viability (HCC-15; first compound 0.4 µM): 0.36
relative viability (HCC-15; first compound 1.265 µM): 0.314
relative viability (HCC-15; first compound 4 µM): 0.251
relative viability (HCC-78; first compound 0.04 µM): 0.737
relative viability (HCC-78; first compound 0.1265 µM): 0.455
relative viability (HCC-78; first compound 0.4 µM): 0.492
relative viability (HCC-78; first compound 1.265 µM): 0.289
relative viability (HCC-78; first compound 4 µM): 0.348
relative viability (HOP-62; first compound 0.04 µM): 0.391
relative viability (HOP-62; first compound 0.1265 µM): 0.411
relative viability (HOP-62; first compound 0.4 µM): 0.345
relative viability (HOP-62; first compound 1.265 µM): 0.317
relative viability (HOP-62; first compound 4 µM): 0.383
relative viability (LXF-289; first compound 0.04 µM): 0.672
relative viability (LXF-289; first compound 0.1265 µM): 0.692
relative viability (LXF-289; first compound 0.4 µM): 0.511
relative viability (LXF-289; first compound 1.265 µM): 0.677
relative viability (LXF-289; first compound 4 µM): 0.672
relative viability (NCI-H1666; first compound 0.04 µM): 0.942
relative viability (NCI-H1666; first compound 0.1265 µM): 0.918
relative viability (NCI-H1666; first compound 0.4 µM): 0.853
relative viability (NCI-H1666; first compound 1.265 µM): 0.775
relative viability (NCI-H1666; first compound 4 µM): 0.621
relative viability (NCI-H1755; first compound 0.04 µM): 0.765
relative viability (NCI-H1755; first compound 0.1265 µM): 0.72
relative viability (NCI-H1755; first compound 0.4 µM): 0.773
relative viability (NCI-H1755; first compound 1.265 µM): 0.78
relative viability (NCI-H1755; first compound 4 µM): 0.792
relative viability (NCI-H1915; first compound 0.04 µM): 0.327
relative viability (NCI-H1915; first compound 0.1265 µM): 0.338
relative viability (NCI-H1915; first compound 0.4 µM): 0.353
relative viability (NCI-H1915; first compound 1.265 µM): 0.313
relative viability (NCI-H1915; first compound 4 µM): 0.317
relative viability (NCI-H1975; first compound 0.04 µM): 0.4
relative viability (NCI-H1975; first compound 0.1265 µM): 0.446
relative viability (NCI-H1975; first compound 0.4 µM): 0.331
relative viability (NCI-H1975; first compound 1.265 µM): 0.329
relative viability (NCI-H1975; first compound 4 µM): 0.247
relative viability (NCI-H1993; first compound 0.04 µM): 0.413
relative viability (NCI-H1993; first compound 0.1265 µM): 0.458
relative viability (NCI-H1993; first compound 0.4 µM): 0.447
relative viability (NCI-H1993; first compound 4 µM): 0.45
relative viability (NCI-H2023; first compound 0.04 µM): 0.563
relative viability (NCI-H2023; first compound 0.1265 µM): 0.535
relative viability (NCI-H2023; first compound 0.4 µM): 0.475
relative viability (NCI-H2023; first compound 1.265 µM): 0.364
relative viability (NCI-H2023; first compound 4 µM): 0.2
relative viability (NCI-H2085; first compound 0.04 µM): 0.613
relative viability (NCI-H2085; first compound 0.1265 µM): 0.553
relative viability (NCI-H2085; first compound 0.4 µM): 0.502
relative viability (NCI-H2085; first compound 1.265 µM): 0.478
relative viability (NCI-H2085; first compound 4 µM): 0.432
relative viability (NCI-H2126; first compound 0.04 µM): 0.592
relative viability (NCI-H2126; first compound 0.1265 µM): 0.564
relative viability (NCI-H2126; first compound 0.4 µM): 0.557
relative viability (NCI-H2126; first compound 1.265 µM): 0.543
relative viability (NCI-H2126; first compound 4 µM): 0.558
relative viability (NCI-H3122; first compound 0.04 µM): 0.223
relative viability (NCI-H3122; first compound 0.1265 µM): 0.169
relative viability (NCI-H3122; first compound 0.4 µM): 0.154
relative viability (NCI-H3122; first compound 1.265 µM): 0.132
relative viability (NCI-H3122; first compound 4 µM): 0.0965
relative viability (NCI-H322M; first compound 0.04 µM): 0.486
relative viability (NCI-H322M; first compound 0.1265 µM): 0.459
relative viability (NCI-H322M; first compound 0.4 µM): 0.524
relative viability (NCI-H322M; first compound 1.265 µM): 0.36
relative viability (NCI-H322M; first compound 4 µM): 0.451
relative viability (NCI-H358; first compound 0.04 µM): 0.123
relative viability (NCI-H358; first compound 0.1265 µM): 0.124
relative viability (NCI-H358; first compound 0.4 µM): 0.131
relative viability (NCI-H358; first compound 1.265 µM): 0.106
relative viability (NCI-H358; first compound 4 µM): 0.105
relative viability (NCI-H441; first compound 0.04 µM): 0.543
relative viability (NCI-H441; first compound 0.1265 µM): 0.428
relative viability (NCI-H441; first compound 0.4 µM): 0.455
relative viability (NCI-H441; first compound 1.265 µM): 0.345
relative viability (NCI-H441; first compound 4 µM): 0.336
relative viability (NCI-H522; first compound 0.04 µM): 0.683
relative viability (NCI-H522; first compound 0.1265 µM): 0.784
relative viability (NCI-H522; first compound 0.4 µM): 0.695
relative viability (NCI-H522; first compound 1.265 µM): 0.705
relative viability (NCI-H522; first compound 4 µM): 0.636
relative viability (UMC-11; first compound 0.04 µM): 0.532
relative viability (UMC-11; first compound 0.1265 µM): 0.861
relative viability (UMC-11; first compound 0.4 µM): 0.727
relative viability (UMC-11; first compound 1.265 µM): 0.707
relative viability (UMC-11; first compound 4 µM): 0.531
